Results: publication PMC8150775, “Repositioning Azelnidipine as a Dual Inhibitor Targeting CD47/SIRPα and TIGIT/PVR Pathways for Cancer Immuno-Therapy” (Biomolecules, 2021)

Target: T1, mouse TIGIT/PVR (Mus musculus, UniProt F6V4I7)
T1 construct: purchased Sino Biological 50259-M03H; host or cells: soluble protein purchased; TIGIT on CHOK1-mTIGIT cells (lenti-viral transfection)
Test: Blocking assay, mouse PVR protein binding to CHOK1-mTIGIT cells
Conditions: concentration gradient; read-out: IC50, blocking mouse TIGIT/PVR (mPVR binding)
Protocol: The abilities of small molecule inhibitors (SMIs) (purchased from TargetMol, Shanghai, China) to block the binding of SIRPα protein to CHOK1-CD47 cells or PVR protein to CHOK1-TIGIT cells were determined by flow cytometry, as previously reported. The SMIs at indicated concentrations were incubated with Fc-tagged SIRPα or PVR protein for 30 min at 4°C, followed by incubating with the indicated cells for another 30 min. Human SIRPα protein (SIA-[…], ACRO Biosystem, Beijing, China), mouse SIRPα protein (SIA-[…], ACRO Biosystem, Beijing, China), human PVR protein (CD5-[…], ACRO Biosystem, Beijing, China), and mouse PVR protein (50259-[…], Sino Biological, Beijing, China) were used. PE-conjugated anti-human IgG antibody was used to detect the Fc protein bind to cells. Cells incubated with the Fc proteins and anti-human IgG antibody without the SMIs serve as the positive control. The mean fluorescent intensity (MFI) of each sample was detected and recorded by a flow cytometry. The blocking efficacy of the SMIs was calculated as the equation: (MFI of the positive control-MFI of the SMI)/MFI of the positive control × 100%.

T1 sequence (F6V4I7 29-408): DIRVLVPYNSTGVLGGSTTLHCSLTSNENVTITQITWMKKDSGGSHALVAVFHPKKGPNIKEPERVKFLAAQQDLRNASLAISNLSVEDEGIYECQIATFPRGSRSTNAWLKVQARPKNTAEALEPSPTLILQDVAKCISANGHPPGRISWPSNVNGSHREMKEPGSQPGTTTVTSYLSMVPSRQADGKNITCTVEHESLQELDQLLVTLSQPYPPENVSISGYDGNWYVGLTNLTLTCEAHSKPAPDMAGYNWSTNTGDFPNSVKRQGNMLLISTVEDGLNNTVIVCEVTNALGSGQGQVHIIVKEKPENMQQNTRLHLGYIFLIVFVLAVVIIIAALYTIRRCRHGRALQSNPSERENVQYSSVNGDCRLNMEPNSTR

IC50: ~82 µM
SMILES: CC1=C(C(=O)OC(C)C)C(c2cccc([N+](=O)[O-])c2)C(C(=O)OC2CN(C(c3ccccc3)c3ccccc3)C2)=C(N)N1 (stereo not shown) [Azelnidipine]
